Assays:
SUP-B15 [1] = experiment: ATP-based luminescence cell viability (CellTiter Glo), drug response score, SUP-B15; parameters: scale not given here; conditions: SUP-B15, screened individually (Compress: None)
MOLT-4 = experiment: ATP-based luminescence cell viability (CellTiter Glo), drug response score, MOLT-4; conditions: MOLT-4, screened individually (Compress: None)
From the text: (§1) As part of a screen, a drug could be screened at different concentrations ranging from a lowest concentration to a highest concentration. In such a scenario, multiple data structures may be obtained by the screening platform 210. […] With these multiple data structures, the analysis module 218 can generate a dose-response curve that describes the magnitude of the response of the biological target, as a function of exposure to different concentrations of the drug. Further, the analysis module 218 can calculate a metric that is indicative of the response of the biological target. In the event that the biological target is one of multiple biological targets that are introduced to the pools of drugs, the metric can be used by the screening platform 210 to better understand the relative magnitude of responses. One example of a metric is drug-response score (“DRS”). DRS can be calculated as a continuous function of multiple parameters of the non-linear dose-response curve, including the slope at the half-maximal effective concentration (also called “EC50”) and the top and bottom asymptotes of the dose-response curve. DRS can be calculated as follows: […]
(§2) where y is a continuous function of the variable dose x, a is the maximal response (i.e., the top asymptote of the curve), b is the slope of the curve, c is the IC50 (i.e., half-maximal inhibitory concentration), and d is the minimal response (i.e., the bottom asymptote of the curve). Other examples of metrics include those output by sigmoidal and Hill slide functions that, like DRS, incorporate multiple aspects of the dose-response curve into a continuous function.
Total cell viability was measured for each cancer cell line using an Adenosine TriPhosphate (“ATP”) assay, and more specifically an ATP-based luminescence assay (i.e., CellTiter Glo). […] The DRS was calculated as a continuous function of multiple parameters of the non-linear dose-response curve, including the slope at the half-maximal effective concentration (also called “EC50”) and the top and bottom asymptotes of the dose-response curve. […] After total cell viability was measured and DRS was calculated, the DRS of each cancer cell line in the pool was deconvolved for each cancer drug.
DRS for these anchor cell lines are bolded and italicized. […] Each pool can then be expressed as a polynomial of variables (cell lines in the pool) and constants (DRS value of the pool). […] When multiple values are calculated for the final target solved from the polynomials, then the anchor has a non-zero value that can be determined based on the difference in the calculated value of the final target. […]

NALM-6 = experiment: ATP-based luminescence cell viability (CellTiter Glo), drug response score, NALM-6; conditions: for DRS from deconvolution: NALM-6, Target compression, 7 Pick 3 pools; for drug response score (DRS): NALM-6, screened individually (Compress: None)
From the text: as §1, §2
(§3) Total cell viability was measured for each cancer cell line using an Adenosine TriPhosphate (“ATP”) assay, and more specifically an ATP-based luminescence assay (i.e., CellTiter Glo). Each cancer drug was screened at multiple concentrations ranging from one nanomolar (nM) to ten micromolar (UM) in order to generate a dose-response curve and calculate a drug response score (“DRS”) for each cancer cell line. The DRS was calculated as a continuous function of multiple parameters of the non-linear dose-response curve, including the slope at the half-maximal effective concentration (also called “EC50”) and the top and bottom asymptotes of the dose-response curve. […] After total cell viability was measured and DRS was calculated, the DRS of each cancer cell line in the pool was deconvolved for each cancer drug.
(§4) DRS for these anchor cell lines are bolded and italicized. Anchors can be identified based on frequency of the cell lines in pools with high DRS versus low DRS. At a high level, an anchor is predicted to be the cell line with the lowest individual DRS. In order to deconvolute individual cell line DRS values from pool DRS values, the anchor can start with an assumed DRS value of zero. Each pool can then be expressed as a polynomial of variables (cell lines in the pool) and constants (DRS value of the pool). The DRS value of each cell line can then be solved for using the anchor value and overlapping polynomial expressions. When multiple values are calculated for the final target solved from the polynomials, then the anchor has a non-zero value that can be determined based on the difference in the calculated value of the final target.
(§5) Each pool represented a co-culture of three cell lines (“Target Compression”).

[2] = system: library of cancer cell lines; experiment: Hit profile of cancer drugs across library of cancer cell lines (cell viability); format: cell-based; conditions: across cancer cell lines screened individually
Protocol: Total cell viability was measured for each cancer cell line using an Adenosine TriPhosphate (“ATP”) assay, and more specifically an ATP-based luminescence assay (i.e., CellTiter Glo). Each cancer drug was screened at multiple concentrations ranging from one nanomolar (nM) to ten micromolar (UM) in order to generate a dose-response curve and calculate a drug response score (“DRS”) for each cancer cell line. The DRS was calculated as a continuous function of multiple parameters of the non-linear dose-response curve, including the slope at the half-maximal effective concentration (also called “EC50”) and the top and bottom asymptotes of the dose-response curve. […]
Table I includes several examples of cancer drugs and their DRSs across each cancer cell line in the aforementioned experiment.

REH = experiment: ATP-based luminescence cell viability (CellTiter Glo), drug response score, REH; parameters: scale not given here; conditions: for DRS from deconvolution: Sample compression, 5 Pick 3 pools; for drug response score (DRS): screened individually (Compress: None)
SUP-B15 [3] = experiment: ATP-based luminescence cell viability (CellTiter Glo), drug response score, SUP-B15; parameters: scale not given here
From the text: as §1, §2, §3, §4, §5

CCRF-CFM = experiment: ATP-based luminescence cell viability (CellTiter Glo), drug response score, CCRF-CFM; parameters: scale not given here; conditions: Target compression
From the text: as §1, §2, §3, §4, §5

[4] = system: pooled samples of three cancer cell lines; experiment: Cell viability (CellTiter Glo) of compressed pooled samples of three individually cultured cell lines (Sample Compression); format: cell-based
Protocol: as §3
A benefit of the compression methodology is the ability to compress members of a library into pools for co-culture screens or compress individual cell cultures into pooled samples for measurement. For example, leukemia cell lines can interact in co-cultures through their immune receptors, which may result in cell activation, cytokine production, and other effects that may impact drug sensitivity and resistance. […] Instead of creating compressed target cells in pooled co-cultures, compression was instead used to enable individual cultures of each cell line, with pooled measurements to reduce reagents and instrument time. With individual cultures and sample compression, it was possible to accurately deconvolute DRS for each drug on each cell line, as shown in Table IV.

[5] = SUP-B15, Sample compression, 5 Pick 3 pools
[6] = SUP-B15, Target compression, 5 Pick 3 pools
[7] = SUP-B15, Target compression, 6 Pick 3 pools
[8] = SUP-B15, Target compression, 7 Pick 3 pools
[9] = 5 Pick 3, Pool 1 (REH, SUP-B15, CCRF-CFM)
[10] = 5 Pick 3, Pool 2 (SUP-B15, CCRF-HSB2, MOLT-4)
[11] = 5 Pick 3, Pool 3 (SUP-B15, CCRF-CFM, CCRF-HSB2)
[12] = 5 Pick 3, Pool 4 (REH, CCRF-CFM, MOLT-4)
[13] = 5 Pick 3, Pool 5 (REH, CCRF-HSB2, MOLT-4)

Row | Structure (SMILES) | drug response score (DRS) (SUP-B15 [1]) | drug response score (DRS) (MOLT-4) | DRS from deconvolution (NALM-6) | drug response score (DRS) (NALM-6) | Hits (hit profile) [2] | DRS from deconvolution (REH) | drug response score (DRS) (REH) | DRS from deconvolution (SUP-B15 [3]; [5]) | DRS from deconvolution (SUP-B15 [3]; [6]) | DRS from deconvolution (SUP-B15 [3]; [7]) | DRS from deconvolution (SUP-B15 [3]; [8]) | DRS from deconvolution (CCRF-CFM; 5 Pick 3 pools) | DRS from deconvolution (CCRF-CFM; 6 Pick 3 pools) | DRS from deconvolution (CCRF-CFM; 7 Pick 3 pools) | DRS of pool [4, 9] | DRS of pool [4, 10] | DRS of pool [4, 11] | DRS of pool [4, 12] | DRS of pool [4, 13]
1 | COc1c(OCCCN2CCOCC2)ccc2c1N=C(NC(=O)c1cnc(N)nc1)N1CCN=C21 [Copanlisib] | 2.84 | 9.44 | 13.74 | 13.14 | Multiple | 12.99 | 13.24 | 1.80 | 1.98 | 3.00 | 1.91 | 15.66 | 15.88 | 15.03 | 10.47 | 6.63 | 8.39 | 13.65 | 10.96
2 | N#Cc1ccnc(N2C(=O)CC[C@H]2C(=O)N(c2cncc(F)c2)[C@H](C(=O)NC2CC(F)(F)C2)c2ccccc2Cl)c1 [Ivosidenib] | 0.00 | 0.20 | 0.00 | 0.00 | None | 0.48 | 0.60 | 0.09 | 0.00 | 0.00 | 0.00 | 1.15 | 0.89 | 1.01 | 0.52 | 0.55 | 0.82 | 0.51 | 0.74
3 | Cc1[nH]c2ccccc2c1CCNCc1ccc(/C=C/C(=O)NO)cc1 [Panobinostat] | 22.40 | 15.10 | 15.85 | 16.30 | All | 12.17 | 12.60 | 25.45 | 21.44 | 22.36 | 21.78 | 19.98 | 16.57 | 18.55 | 18.56 | 19.17 | 20.34 | 14.93 | 15.87
4 | CC1(C)CCC(CN2CCN(c3ccc(C(=O)NS(=O)(=O)c4ccc(NCC5CCOCC5)c([N+](=O)[O-])c4)c(Oc4cnc5[nH]ccc5c4)c3)CC2)=C(c2ccc(Cl)cc2)C1 [Venetoclax] | 37.40 | 2.90 | 9.54 | 7.30 | One | 1.15 | 3.80 | 37.02 | 37.99 | 37.35 | 35.04 | 0.28 | 1.51 | 1.07 | 13.99 | 13.60 | 12.57 | 2.91 | 2.41

— patent US20260378560A1, “APPROACHES TO DESIGNING AND PERFORMING COMPRESSED BIOLOGICAL EXPERIMENTS AND SYSTEMS FOR IMPLEMENTING THE SAME” (EXVIVO LABS INC., priority 2023, published 2026)
